# Assays:
# JEV T1P1 [1] = assay: Apoptosis test (Annexin V/PI flow cytometry), JEV T1P1-infected TE671 cells; assay type: cell-based, Japanese encephalitis virus; conditions: JEV T1P1 infection 36 hours, compound 125 μM; infected without compound 20.1%
# Experimental: (§1) BHK-21 cells and/or TE671cells were separately cultured in a 24-well culture plate, with an initial density of 3×10^4 per well, and with 1 ml of 2% FBS-containing MEM medium per well. The cells were incubated in an incubator (37° C., 5% CO2) overnight, and the medium was removed until the cells adhered to the plate. Then, fresh 2% FBS-containing MEM medium was simultaneously added into each well of the culture plate. The cells were infected with a JEV T1P1 virus strain, wherein the amount of JEV T1P1 used to infect BHK-21 cells was a multiplicity of infection (M.O.I.)=0.1, and the amount of JEV T1P1 used to infect TE671 cells was M.O.I.=0.05. Different concentrations of compound 1 (final concentrations were 0, 2.5, 25 and 125 μM, respectively) were added into different wells. The culture plate was placed into an incubator (37° C., 5% CO2) and maintained therein.
# (§2) BHK-21 cells and TE 671 cells were washed with PBS after being infected with the JEV T1P1 virus strain for 36 hours in the above experiment (1). Then, PBS was removed. Trypsin-EDTA (150 μl) was added into each well. The cells were incubated in an incubator at 37° C. for 3 minutes. Then, 1 ml MEM medium was added into each well to neutralize EDTA. […] The cells were maintained in the dark for 5 to 10 minutes, and then analyzed by flow cytomerty.
# JEV T1P1 [2] = assay: Apoptosis test (Annexin V/PI flow cytometry), JEV T1P1-infected BHK-21 cells; assay type: cell-based, Japanese encephalitis virus; conditions: JEV T1P1 infection 36 hours; infected without compound 59.05%
# Experimental: as §1, §2
# [3] = test system: PKR, OAS, IFN-α and interferon receptor; assay: Real-time PCR of anti-virus gene expression in JEV T1P1-infected TE671 cells; assay type: cell-based; conditions: JEV T1P1-infected TE671 cells (M.O.I.=1), 8 hours, compound 125
# Experimental: TE671 cells were cultured in a 6-well culture plate in accordance with the experimental conditions. The next day, TE671 cells were infected with the JEV T1P1 virus strain (M.O.I.=1), and various concentrations (the final concentration of compound 1 were about 0 or 125 respectively) of compound 1 were added into different wells simultaneously. The cells were then incubated in an incubator (37° C., 5% CO2) for 8 hours, and then collected. The cells were re-suspended with PBS and precipitated by centrifugation (2000 rpm, 5 minutes), and then extracted by Pure Link RNA Mini Kit to obtain the RNA. If the obtained RNA was desired to be stored at −20° C., then the RNA would have to reverse transcribed into cDNA using the following reverse transcription PCR (RT-PCR) steps: i) 11 μl RNA was placed into a microtube, and put into a 55° C. […]
# The expression of anti-virus genes was analyzed by real-time PCR. […] Then, the amount of fluorescence of each cycle was determined by ABI Prism 7500 software. The fold difference of each gene as compared to the control group was calculated by using Ct to calculate ΔCt and ΔΔCt (i.e., ΔCt=Ct. exp−Ct. control, ΔΔCt=ΔCt. exp−ΔCt. mock). Then, 2^−ΔΔCt can thereby be calculated.
# JEV T1P1 [4] = assay: Cytopathic effect test, JEV T1P1-infected BHK-21 cells; assay type: cell-based, Japanese encephalitis virus
# Experimental: as §1
# When BHK-21 cells were infected with JEV T1P1 virus strain for 48 and 72 hours as indicated in the above experiment (1), the cytopathic effect was observed by photography, while the cytopathic effect of TE671 cells was observed by photography when TE671 cells were infected with the JEV T1P1 virus strain for 36 and 48 hours. In addition, 200 μl culture medium supernatant of both cells was collected from each time point (i.e., 48 and 72 hours), thereby, providing the use for a viral plaque test in Example 4.
smiles,measurement,setting,value
"CCOC(=O)C1=C(Nc2cc(C)cc(C)c2)OCC1=O [Compound 1, ethyl 2-(3′,5′-dimethylanilino)-4-oxo-4,5-dihydrofuran-3-carboxylate]",ratio of TE671 cells getting into late apoptosis,JEV T1P1 [1],4.7%
same,ratio of BHK-21 cells getting into late apoptosis,JEV T1P1 [2],reduced by compound 1 in a concentration dependent manner
same,"relative gene expression levels of PKR, OAS, IFN-α and interferon receptor",[3],increase
same,JEV T1P1-induced cytopathic effect,"JEV T1P1 [4]; infected 48 hours, M.O.I.=0.1, compound 25 μM simultaneously",significantly reduced
same,JEV T1P1-induced cytopathic effect,"JEV T1P1 [4]; infected 72 hours, M.O.I.=0.1, compound 125 μM simultaneously",effectively inhibited

# Source: patent publication US9205073B2, “Method for treating virus infection using derivative of aniline” (CHINA MEDICAL UNIVERSITY, priority 2014, dated 2015)
